Patent US9393316B2, “Cancer targeting peptides for enhancing anti-cancer drug delivery and therapeutic efficiencies” (priority 2014, dated 2016)

Legend:
[1] = biological target: T1, alpha-enolase (ENO1) (Homo sapiens, UniProt P06733); test: Flow cytometry binding of HCT74 phage after ENO1 knockdown or overexpression
T1 construct: endogenous in cells; host or cells: HCT116
Source text: To further confirm alpha-enolase was the target proteins of the pHCT74 peptide, correlation between the binding activity of HCT74 phage and ENO1 expression was examined. We established stable cell lines expressing shRNAs targeting ENO1 gene (FIG. 4E) and tested the binding activity of HCT74 phage by flow cytometry. The binding activity of HCT74 phage was reduced after ENO1 gene knockdown (FIG. 4F). Instead, after transient overexpression of ENO1 gene, the binding activity of HCT74 phage was increased (FIG. 4G). […] In addition, HCT74 phage specific binding to the alpha enolase protein was also confirmed by direct ELISA assay (FIG. 4H).

[2] = tested on: B16-F10; test: Cellular ELISA of phage clones; format: binding, mouse
Protocol: The selected phages were further identified by ELISA screening. 1×10^4 cells were seeded into each well of 96-well ELISA plates (Falcon, Calif., USA) overnight and were fixed with 2% paraformaldehyde or methanol/acetone (1:1) for 10 min at RT. The plates were washed twice with PBS and were blocked with 1% BSA in PBS (w/v) for 30 min at RT. Then individual phage clones were added and incubated for 1 hr at RT. Following washing three times with PBS, the plates were incubated with horseradish peroxidase (HRP)-conjugated mouse anti-M13 phage antibody (GE Healthcare) at 1:2000 dilution for 1 hr at RT. The plates were washed three times with PBS again, and were subsequently incubated with the peroxidase substrate o-phenylenediamine dihydrochloride (OPD; Sigma) plus H2O2. The reaction was terminated by 3 N HCl, and the absorbance was measured using microplate reader (Model 680, BioRad) at 490 nm. To evaluate the binding activities of the three selected phage clones to various human cancer cell lines, cellular ELISA was performed to detect sixteen types of human cancer cell lines, including A498, HTB-10, B16-F10, SKOV3, PC-3, U2OS, 1112SK, […], SAS, H460, MIA Paca-2, HCT116, HUVAC, CL1-5, Mahlavu, and MDA-MB-231.

[3] = biological target: recombinant α-enolase protein (Homo sapiens, UniProt P06733); test: Direct ELISA of HCT74 phage on recombinant α-enolase protein; format: binding; conditions: plate coated with 2 ug/mL α-enolase
Chain of recombinant α-enolase protein (P06733 whole entry): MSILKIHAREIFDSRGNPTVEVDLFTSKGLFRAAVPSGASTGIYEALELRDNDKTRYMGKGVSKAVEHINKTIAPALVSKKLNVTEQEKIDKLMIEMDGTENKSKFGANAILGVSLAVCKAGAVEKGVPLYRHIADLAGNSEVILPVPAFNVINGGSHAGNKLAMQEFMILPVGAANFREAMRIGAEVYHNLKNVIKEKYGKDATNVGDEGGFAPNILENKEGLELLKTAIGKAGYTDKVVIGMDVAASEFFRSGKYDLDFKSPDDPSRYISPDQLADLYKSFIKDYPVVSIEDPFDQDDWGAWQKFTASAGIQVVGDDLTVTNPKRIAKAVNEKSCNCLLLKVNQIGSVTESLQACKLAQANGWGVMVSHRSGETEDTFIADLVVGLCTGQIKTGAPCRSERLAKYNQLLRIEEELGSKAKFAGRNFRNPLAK
Protocol: (A) Schematic diagram of the experimental design. (B) The binding characteristics of biotinylated pHCT74 peptide to HCT116 cells were evaluated by flow cytometry. (C) Affinity cross-linking of biotinylated pHCT74 peptide to the surface proteins of HCT116 cells, cross-linked proteins were cleaved from streptavidin dynabeads using 2-mercaptoethanol. […] (D) The peptide sequence (SEQ ID NO: 22) of target bands were deduced by tandem mass spectrometry. (E) Stable knockdown of ENO1 gene by introducing specific shRNA (ENO1-A, B, C and D shRNA) into HCT116 cells through infection with viral vectors. (F) The binding activity of HCT74 phage was reduced after α-enolase gene knockdown (G) The binding activity of HCT74 phage was enhanced when α-enolase was overexpressed. (H) Binding affinity of the HCT74 phage to recombinant α-enolase protein. The 96-well plate was pre-coated with 2 ug/mL α-enolase protein and incubated with increasing concentrations of HCT74 phage and then with HRP conjugated anti-M13 antibody. Data are presented as mean±standard deviation.
To further confirm alpha-enolase was the target proteins of the pHCT74 peptide, correlation between the binding activity of HCT74 phage and ENO1 expression was examined. We established stable cell lines expressing shRNAs targeting ENO1 gene (FIG. 4E) and tested the binding activity of HCT74 phage by flow cytometry. […]

[4] = tested on: peripheral blood mononuclear cells (PBMC); test: Flow cytometry binding of phage clones to normal cells; conditions: human PBMC
Protocol: (§1) Cells were grown to 70-80% confluence and were harvested with 10 mM EDTA in PBS. Peripheral blood mononuclear cells were prepared by using Ficoll-Paque Plus density gradient separation. After washing and suspending the cells with FACS buffer (PBS containing 1% fetal bovine serum), the cells were incubated for 1 hr at 4° C. with 5×10^9, 1×10^9 cfu individual phage clones or control phage, respectively. After washing twice with FACS buffer, cells were incubated with mouse anti-M13 monoclonal antibody (GE Healthcare) at 1:2000 dilution for 1 hr followed by 30 min with phycoerythrin (PE)-conjugated goat anti-mouse secondary antibody (Jackson ImmunoResearch) at 1:250 dilution at 4° C. The emission fluorescence signals were measured using FACSCantoll (Becton Dickinson) and were analyzed by FlowJo software.

[5] = tested on: HCT116 cells; test: ELISA screening of phage clones on HCT116 cells (cellular ELISA); format: binding, human; conditions: HCT116, cell line panel
Protocol: The selected phages were further identified by ELISA screening. 1×10^4 cells were seeded into each well of 96-well ELISA plates (Falcon, Calif., USA) overnight and were fixed with 2% paraformaldehyde or methanol/acetone (1:1) for 10 min at RT. The plates were washed twice with PBS and were blocked with 1% BSA in PBS (w/v) for 30 min at RT. Then individual phage clones were added and incubated for 1 hr at RT. Following washing three times with PBS, the plates were incubated with horseradish peroxidase (HRP)-conjugated mouse anti-M13 phage antibody (GE Healthcare) at 1:2000 dilution for 1 hr at RT. The plates were washed three times with PBS again, and were subsequently incubated with the peroxidase substrate o-phenylenediamine dihydrochloride (OPD; Sigma) plus H2O2. The reaction was terminated by 3 N HCl, and the absorbance was measured using microplate reader (Model 680, BioRad) at 490 nm.

[6] = tested on: LS174T; test: Flow cytometry surface binding of phage clones; design: species or system human
Protocol: as §1

[7] = tested on: SW620; test: Flow cytometry surface binding of phage clones; design: species or system human
Protocol: as §1

[8] = tested on: HCT116 cells; test: Flow cytometry surface binding of phage clones; design: species or system human
Protocol: as §1

[9] = tested on: HT29; test: Flow cytometry surface binding of phage clones; design: species or system human
Protocol: as §1

[10] = tested on: COLO205; test: Flow cytometry surface binding of phage clones; design: species or system human
Protocol: as §1

T1 sequence (P06733 whole entry): as above

SSMDIVLRAPLM [HCT74] was tested, and the “binding activity after ENO1 gene knockdown” value ([1]; HCT116 cells with shRNAs targeting ENO1) was “reduced”, the “binding activity after transient overexpression of ENO1 gene” value ([1]; flow cytometry) was “increased” and the “binding by cellular ELISA” value [2] was “highly specific binding”. The “specific binding to alpha enolase protein” value [3] was “confirmed”, the “binding activity to PBMC (normal cells) by FACS” value [4] was “not to normal cells” and the “binding by cellular ELISA” value [5] was “highly specific binding”. For the same sequence, the “binding activity by FACS” value [6] was “moderate affinity”, the “binding activity by FACS” value [7] was “high binding affinity” and the “cell surface-binding activity by flow cytometry” value [8] was “high binding affinity”. The “binding activity by FACS” value [9] was “high binding affinity” and the “binding activity by FACS” value [10] was “weak affinity”.
